According to patent US4116963A, “3,3,3-Triarylalkyl-4-phenylalkyl-4-hydroxy piperidines and related compounds” (G.D. Searle & Co., priority 1977, dated 1978):

Legend:
[1] = test system: mice; test: CECAL (Charcoal Meal Test); format: in vivo; conditions: Mus musculus, po; i.g., 1 hour prior to the charcoal meal; antidiarrheal effect; read-out: Cecal Test (CT) ED50
Procedure: The antidiarrheal effect of the compounds of the present invention are shown by the following test:
CECAL (Charcoal Meal Test)
Mice weighing 18-24 grams and previously fasted for 24 hours are each given orally 0.2 ml of a suspension containing 10% charcoal and 1% methylcellulose. The test compounds are administered intragastrically 1 hour prior to the charcoal meal. 3.5 Hours after administration of the meal the mice are sacrificed by cervical dislocation and the cecum is examined for the presence or absence of charcoal on an all or none basis. Each compound is tested at three dose levels (typically 30, 10, 3 mg/kg) in groups of 6 mice per dose level. Control groups of mice given vehicle only were run concurrently with each test group.

[2] = test system: mice; test: Mouse Hot Plate Test; format: in vivo; conditions: for ED50: Mus musculus, printed "mg/kg k.g.", hot plate 55± 0.3° C., analgesic effect, read-out: Hot Plate (HP) ED50; for Relative Constipation Specificity HP/CT: ratio of Hot Plate ED50 to Cecal Test ED50
Procedure: The assessment of the analgesic effect of the instant compounds was conducted in the mouse hot plate and tail clip tests.
A mouse (adult male weighing 18-25 grams) is placed in a restraining cylinder on a hot plate with the temperature controlled at 55± 0.3° C. The reaction time of the mouse to lick a foot or jump is measured at 60, 40 and 20 minutes before and 30, 60, 90, and 120 minutes after administration of the test compound. The "normal" reaction time is measured as the median of the three pretreatment reaction times. A positive response consists of a reaction time greater than twice the normal time at any of the post treatment times. A dose of the test compound is considered active when 50 percent or more of the animals used show a positive response.

[3] = test system: mice; test: Tail Clip Test; format: in vivo, mouse; conditions: for ED50: Mus musculus, po, i.g., analgesic effect, read-out: Tail Clip (TC) ED50; for Relative Constipation Specificity TC/CT: ratio of Tail Clip ED50 to Cecal Test ED50

| Structure (SMILES) | ED50 [1] | ED50 [2] | Relative Constipation Specificity HP/CT [2] | ED50 [3] | Relative Constipation Specificity TC/CT [3] |
| --- | --- | --- | --- | --- | --- |
| OC1(c2ccccc2)CCN(CCC(c2ccccc2)(c2ccccc2)c2ccccc2)CC1 [I, 1-(3,3,3-triphenylpropyl)-4-hydroxy-4-phenylpiperidine] | 0.39 mg/kg | ~3 mg/kg | 7.6 | ~3 mg/kg | 7.6 |
| OC1(Cc2ccccc2)CCN(CCC(c2ccccc2)(c2ccccc2)c2ccccc2)CC1 [II, 1-(3,3,3-triphenylpropyl)-4-hydroxy-4-benzylpiperidine] | 0.6 mg/kg | ~400 mg/kg | 667 | ~400 mg/kg | 667 |
